Laboratory results taken from patent US6368624B1, “Tableted product prepared by vacuum freeze-drying of a plant belonging to genus aloe of family Liliaceae and the method for producing same” (Yurika Incorporated, priority 1990, dated 2002).

Tested on: human O-type erythrocytes
Test: Erythrocyte agglutination, microtiter method
Type: cell-based
Conditions: at a concentration of 1 mg/ml
Method: The inventive tablet and the control tablet obtained by drying under hot air circulation, were crushed into powders. 1.0 g each of the powders was dissolved in 10 ml of distilled water. After stirring, each of the resulting solutions was centrifuged at 4° C. for 30 minutes at 12,000 rpm.
The erythrocyte agglutination activity of each of the produced supernatants was examined in accordance with the microtiter method.
A buffer solution obtained by mixing phosphoric acid with physiological saline to pH 7.4 was added to 100 μl each of the supernatarits for two-stage dilution until 128-fold dilution was reached. To each diluted solution, 100 μof the 1% human O-type erythrocytes were added, and reaction was carried out at 37° C. for one hour to observe the progress of agglutination.

## Concanavalin A
  Agglutination titer: 32 titer
